Measured values from US12024531B2, “Immunoproteasome inhibitors” (Principia Biopharma Inc., priority 2017, dated 2024).

Tests used:
Format in all cases: biochemical
[1] = target: immunoproteasome LMP2 subunit (Homo sapiens, UniProt P28065); assay: Caliper-based proteasome enzymatic activity assay, LMP2; conditions: human recombinant immunoproteasome 0.3 nM, FAM peptide substrate 1 μM, rt 2 h
[2] = target: constitutive proteasome β5c subunit (Homo sapiens, UniProt P28074); assay: Caliper-based proteasome enzymatic activity assay, β5c; conditions: human recombinant constitutive proteasome 0.3 nM, FAM peptide substrate 1 μM, rt 3 h
[3] = target: immunoproteasome LMP7/B5i subunit (Homo sapiens, UniProt P28062); assay: Caliper-based proteasome enzymatic activity assay, LMP7; conditions: human recombinant immunoproteasome 0.3 nM, FAM peptide substrate 1 μM, rt 3 h

Compound	IC50 [1]	IC50 [2]	IC50 [3]
Cc1ccc(C[C@H](NC(=O)CCOc2cccc(C=C(C#N)C(=O)N(C)C)c2)B(O)O)c(C)c1 [Example 44, (R)-(1-(3-(3-(2-cyano-3-(dimethylamino)-3-oxoprop-1-en-1-yl)phenoxy)propanamido)-2-(2,4-dimethylphenyl)ethyl)boronic Acid]	3130 nM	388 nM	2.1 nM
Cc1ccc(C[C@H](NC(=O)CCOc2cccc(C=C(C#N)c3ccccn3)c2)B(O)O)c(C)c1 [Example 45, (R)-1-(3-(3-(2-cyano-2-(pyridin-2-yl)vinyl)phenoxy)propanamido)-2-(2,4-dimethylphenyl)ethylboronic Acid]	1250 nM	92.7 nM	4.3 nM
COCCNC(=O)C(C#N)=Cc1cccc(OCCC(=O)N[C@@H](Cc2ccccc2)B(O)O)c1 [Example 46, (R)-(1-(3-(3-(2-cyano-3-((2-methoxyethyl)amino)-3-oxoprop-1-en-1-yl)phenoxy)propanamido)-2-phenylethyl)boronic Acid]	370 nM	141 nM	4.6 nM
COCC(C)(C)NC(=O)C(C#N)=Cc1cccc(OCCC(=O)N[C@@H](Cc2ccccc2)B(O)O)c1 [Example 47, (R)-(1-(3-(3-(2-cyano-3-((1-methoxy-2-methylpropan-2-yl)amino)-3-oxoprop-1-en-1-yl)phenoxy)propanamido)-2-phenylethyl)boronic Acid]	438 nM	72.2 nM	5.3 nM
COC(C)(C)CNC(=O)C(C#N)=Cc1cccc(OCCC(=O)N[C@@H](Cc2ccccc2)B(O)O)c1 [Example 48, (R)-(1-(3-(3-(2-cyano-3-((2-methoxy-2-methylpropyl)amino)-3-oxoprop-1-en-1-yl)phenoxy)propanamido)-2-phenylethyl)boronic Acid]	415 nM	90.4 nM	5.1 nM
CN(C)C(=O)C(C#N)=Cc1cccc(COCC(=O)N[C@@H](Cc2ccccc2)B(O)O)c1 [Example 49, (R)-(1-(2-((3-(2-cyano-3-(dimethylamino)-3-oxoprop-1-en-1-yl)benzyl)oxy)acetamido)-2-phenylethyl)boronic Acid]	2900 nM	1130 nM	4.9 nM
COc1cccnc1C(C#N)=Cc1cccc(OCCC(=O)N[C@@H](Cc2ccccc2)B(O)O)c1 [Example 51, (R)-(1-(3-(3-(2-cyano-2-(3-methoxypyridin-2-yl)vinyl)phenoxy)propanamido)-2-phenylethyl)boronic Acid]	306 nM	122 nM	20.2 nM
CN(C)C(=O)C(C#N)=Cc1cccc(CCOC(=O)N[C@@H](Cc2coc3ccccc23)B(O)O)c1 [Example 53, (R)-(2-(benzofuran-3-yl)-1-(((3-(2-cyano-3-(dimethylamino)-3-oxoprop-1-en-1-yl)phenethoxy)carbonyl)amino)ethyl)boronic Acid]	> 5000 nM	212 nM	1 nM
N#CC(=Cc1cccc(CCOC(=O)N[C@@H](Cc2ccccc2)B(O)O)c1)c1ccc(C(F)(F)F)cn1 [Example 56, (R)-(1-(((3-(2-cyano-2-(5-(trifluoromethyl)pyridin-2-yl)vinyl)phenethoxy)carbonyl)amino)-2-phenylethyl)boronic Acid]	1770 nM	439 nM	3.8 nM
Cc1ccc(C[C@H](NC(=O)OCCc2cccc(C=C(C#N)c3ccccn3)c2)B(O)O)cc1 [Example 57, (R)-(1-(((3-(2-cyano-2-(pyridin-2-yl)vinyl)phenethoxy)carbonyl)amino)-2-(p-tolyl)ethyl)boronic Acid]	> 5000 nM	188 nM	1.8 nM
N#CC(=Cc1cccc(CCOC(=O)N[C@@H](Cc2ccccc2)B(O)O)c1)c1ccncn1 [Example 59, (R)-(1-(((3-(2-cyano-2-(pyrimidin-4-yl)vinyl)phenethoxy)carbonyl)amino)-2-phenylethyl)boronic Acid]	544 nM	354 nM	0.9 nM
CCN(CC)C(=O)C(C#N)=Cc1cccc(CCNC(=O)N[C@@H](Cc2ccccc2)B(O)O)c1 [Example 61, (R)-(1-(3-(3-(2-cyano-3-(diethylamino)-3-oxoprop-1-en-1-yl)phenethyl)ureido)-2-phenylethyl)boronic Acid]	> 5000 nM	> 5000 nM	43.2 nM
N#CC(=Cc1cccc(CCNC(=O)N[C@@H](Cc2ccccc2)B(O)O)c1)c1ccccn1 [Example 62, (R)-(1-(3-(3-(2-cyano-2-(pyridin-2-yl)vinyl)phenethyl)ureido)-2-phenylethyl)boronic Acid]	> 5000 nM	> 5000 nM	186 nM
N#CC(=Cc1cccc(CCOC(=O)N[C@@H](Cc2ccccc2)B(O)O)c1)c1cnccn1 [Example 63, (R)-(1-(((3-(2-cyano-2-(pyrazin-2-yl)vinyl)phenethoxy)carbonyl)amino)-2-phenylethyl)boronic Acid]	1510 nM	556 nM	1.4 nM
CCN(C(=O)C(C#N)=Cc1cccc(CCOC(=O)N[C@@H](Cc2ccccc2)B(O)O)c1)C(C)C [Example 64, (R)-(1-(((3-(2-cyano-3-(ethyl(isopropyl)amino)-3-oxoprop-1-en-1-yl)phenethoxy)carbonyl)amino)-2-phenylethyl)boronic Acid]	4540 nM	1920 nM	2.5 nM
C[C@@H]1COC[C@@H](C)N1C(=O)C(C#N)=Cc1cccc(CCOC(=O)N[C@@H](Cc2ccccc2)B(O)O)c1 [Example 65, ((R)-1-(((3-(2-cyano-3-((3R,5R)-3,5-dimethylmorpholino)-3-oxoprop-1-en-1-yl)phenethoxy)carbonyl)amino)-2-phenylethyl)boronic Acid]	3560 nM	1190 nM	0.6 nM
N#CC(=Cc1ccc2c(c1)CN(CC(=O)N[C@@H](Cc1ccccc1)B(O)O)CC2)c1ccccn1 [Example 66, (R)-(1-(2-(7-(2-cyano-2-(pyridin-2-yl)vinyl)-3,4-dihydroisoquinolin-2(1H)-yl)acetamido)-2-phenylethyl)boronic Acid]	74.4 nM	33.3 nM	4.6 nM
C[C@H]1COC[C@H](C)N1C(=O)C(C#N)=Cc1cccc(CCOC(=O)N[C@@H](Cc2ccccc2)B(O)O)c1 [Example 68, ((R)-1-(((3-(2-cyano-3-((3S,5S)-3,5-dimethylmorpholino)-3-oxoprop-1-en-1-yl)phenethoxy)carbonyl)amino)-2-phenylethyl)boronic Acid]	> 5000 nM	> 5000 nM	0.7 nM
CCN(C(=O)C(C#N)=Cc1cccc(CCOC(=O)N[C@@H](Cc2ccccc2)B(O)O)c1)C(C)(C)C [Example 69, (R)-(1-(((3-(3-(tert-butyl(ethyl)amino)-2-cyano-3-oxoprop-1-en-1-yl)phenethoxy)carbonyl)amino)-2-phenylethyl)boronic Acid]	3190 nM	3020 nM	2.2 nM
CN(C(=O)C(C#N)=Cc1cccc(CCOC(=O)N[C@@H](Cc2ccccc2)B(O)O)c1)C(C)(C)C [Example 71, (R)-(1-(((3-(3-(tert-butyl(methyl)amino)-2-cyano-3-oxoprop-1-en-1-yl)phenethoxy)carbonyl)amino)-2-phenylethyl)boronic Acid]	2010 nM	2420 nM	0.9 nM
N#CC(=Cc1cccc(CCOC(=O)N[C@@H](Cc2ccccc2)B(O)O)c1)C(=O)N(C1CCOCC1)C1CCOCC1 [Example 72, (R)-(1-(((3-(3-(bis(tetrahydro-2H-pyran-4-yl)amino)-2-cyano-3-oxoprop-1-en-1-yl)phenethoxy)carbonyl)amino)-2-phenylethyl)boronic Acid]	> 5000 nM	> 5000 nM	1.4 nM
N#CC(=Cc1cccc(CCNC(=O)N[C@@H](Cc2ccccc2)B(O)O)c1)c1ccc(C(F)(F)F)cn1 [Example 73, (R)-(1-(3-(3-(2-cyano-2-(5-(trifluoromethyl)pyridin-2-yl)vinyl)phenethyl)ureido)-2-phenylethyl)boronic Acid]	2000 nM	1900 nM	66.4 nM
N#CC(=Cc1cc(CO)cc(CCOC(=O)N[C@@H](Cc2ccccc2)B(O)O)c1)c1ccccn1 [Example 76, (R)-(1-(((3-(2-cyano-2-(pyridin-2-yl)vinyl)-5-(hydroxymethyl)phenethoxy)carbonyl)amino)-2-phenylethyl)boronic Acid]	> 5000 nM	3410 nM	3.2 nM
Cc1ccc(C[C@H](NC(=O)NCCc2cccc(C=C(C#N)c3ccccn3)c2)B(O)O)cc1 [Example 77, (R)-(1-(3-(3-(2-cyano-2-(pyridin-2-yl)vinyl)phenethyl)ureido)-2-(p-tolyl)ethyl)boronic Acid]	> 5000 nM	2150 nM	42 nM
N#CC(=Cc1cccc(CCOC(=O)N[C@@H](Cc2ccccc2)B(O)O)c1)c1ccc(C#N)cn1 [Example 78, (R)-(1-(((3-(2-cyano-2-(5-cyanopyridin-2-yl)vinyl)phenethoxy)carbonyl)amino)-2-phenylethyl)boronic Acid]	690 nM	390 nM	1.6 nM
CC1(C)COCCN1C(=O)C(C#N)=Cc1cccc(CCOC(=O)N[C@@H](Cc2ccccc2)B(O)O)c1 [Example 79, (R)-(1-(((3-(2-cyano-3-(3,3-dimethylmorpholino)-3-oxoprop-1-en-1-yl)phenethoxy)carbonyl)amino)-2-phenylethyl)boronic Acid]	1600 nM	998 nM	0.9 nM
Cc1ccc(C[C@H](NC(=O)NCCc2cccc(C=C(C#N)c3ccc(C(F)(F)F)cn3)c2)B(O)O)cc1 [Example 80, (R)-(1-(3-(3-(2-cyano-2-(5-(trifluoromethyl)pyridin-2-yl)vinyl)phenethyl)ureido)-2-(p-tolyl)ethyl)boronic Acid]	> 5000 nM	2570 nM	43 nM
